Laboratory results taken from patent US4327097A, “Novel penicillins” (Toyama Chemical Co., Ltd., priority 1974, dated 1982).
Converted amounts (≈) assume the structure as drawn.

Experiments:
[1] = system: β-lactamase, Pseudomonas aeruginosa GN 238; experiment: Resistant activity against β-lactamase, iodometric assay; format: biochemical; conditions: β-lactamase from Pseudomonas aeruginosa GN 238; Potassium Penicillin G = 100
Experimental: (3) Resistant activity against β-lactamase, Pseudomonas aerugionsa GN 238:
The resistant activity of each compound against β-lactamase was measured in the manner described below.
β-Lactamase was prepared from Pseudomonas aeruginosa GN 238. This microorganism was cultured in 100 ml of a medium containing 2 g of yeast extract, 10 g of polypeptone, 2 g of glucose, 7 g of disodium hydrogen phosphate, 2 g of potassium dihydrogen phosphate, 1.2 g of ammonium sulfate and 0.4 g of magnesium sulfate, per liter, in a 500-ml Erlenmeyer flask for 6 hrs. at 37° C. with shaking. The resulting cells were collected by centrifugation (5,000 r.p.m.×10 min.), washed three times with 0.1 M phosphate buffer (pH 7.0). Subsequently, the cells were subjected to sonication (20 KHz, 20 min.) and then centrifuged at 15,000 r.p.m. for 60 min. By using the supernatant of enzyme fluid, the resistance of each compound against β-lactamase was determined by the iodometric assay method. Each numeral shown in Table 7 is a relative activity value calculated by assuming as 100 the activity of the control Potassium Penicillin G.

Escherichia coli = experiment: MIC against clinical isolates; format: cell-based; conditions: Table 5-2, clinical isolate; unit assumed
Staphylococcus aureus = experiment: MIC against clinical isolates; format: cell-based; conditions: Table 5-1, clinical isolate; unit assumed
Proteus morganii = experiment: MIC against clinical isolates; format: cell-based; conditions: Table 5-6, clinical isolate; unit assumed
Shigella sonnei = experiment: MIC against clinical isolates; format: cell-based; conditions: Table 5-5, clinical isolate; unit assumed
Experimental: (§1) The minimum inhibitory concentration (MIC) was determined by the plate method disclosed in "Chemotherapy" (Japan), Vol. 16, (1968), pages 98-99. The culture medium used was a Heart infusion agar (pH 7.4). The number of the cells per plate used in the inoculum was 10^4 (10^6 cells/ml).
(§2) MIC was determined in the same manner as in the preceding paragraph (1).

Shigella flexneri = experiment: MIC against clinical isolates; format: cell-based; conditions: Table 5-5, clinical isolate; unit assumed
Experimental: as §1, §2

Proteus mirabilis = experiment: MIC against clinical isolates; format: cell-based; conditions: Table 5-6, clinical isolate; unit assumed
Pseudomonas aeruginosa = experiment: MIC against clinical isolates; format: cell-based; conditions: Table 5-3, clinical isolate; unit assumed
[2] = target: β-lactamase, Escherichia freundii GN 346 (Citrobacter freundii, UniProt Q46041); experiment: Resistant activity against β-lactamase, iodometric assay; format: biochemical; conditions: control Cephalorizine = 100
Experimental: (§3) (4) Resistant activity of each cephalosporin compound against β-lactamase, Proteus vulgaris GN 76 and Escherichia freundii GN 346:
(§4) The resistant activity of each cephalosporin compound against β-lactamase was measured in the manner described below.
(§5) β-lactamase was prepared from Proteus vulgaris GN 76 and Escherichia freundii GN 346. 10 ml of an overnight culture in Heart Infusion broth was diluted with 100 ml of a medium containing 2 g of yeast extract, 10 g of polypeptone, 2 g of glucose, 7 g of disodium hydrogen phosphate, 2 g of potassium dihydrogen phosphate, 1.2 g of ammonium sulfate and 0.4 g of magnesium sulfate, per liter, and incubated with shaking at 37° C. After incubation of 2 hrs, Penicillin G (50 μg/ml) was added as the inducer, and further incubated for 2 hrs. The resulting cells were collected by centrifugation (5,000 r.p.m.×10 min.) and washed two times with 0.1 M phosphate buffer (pH 7.0). Subsequently, the cells were subjected to sonication (20 KHz, 5 min.) and then centrifuged at 15,000 r.p.m. for 60 min. By using the supernatant of enzyme fluid, the stability of each compound against β-lactamase was determined by the iodometric assay method. Each numeral shown in Table 7-2 is a relative activity value calculated by assuming as 100 the activity of the control Cephalorizine.

[3] = target: T1, β-lactamase, Proteus vulgaris GN 76 (Proteus vulgaris, UniProt P52664); experiment: as above; format: biochemical; conditions: control Cephalorizine = 100
T1 construct: By using the supernatant of enzyme fluid; endogenous in cells; host or cells: Proteus vulgaris GN 76 (penicillin G-induced cells, sonicated, 15,000 r.p.m. supernatant)
Experimental: as §3, §4, §5

[4] = system: Staphylococcus aureus 209p; experiment: MIC, plate method, standard strains; format: cell-based; conditions: unit assumed
Experimental: as §1

[5] = system: Pseudomonas aeruginosa I.F.O.; experiment: MIC, plate method, standard strains; format: cell-based; conditions: unit assumed; for MIC Pseudomonas aeruginosa I.F.O.: Table 4, standard strain
Experimental: as §1

Proteus vulgaris 3027 = experiment: MIC, plate method, standard strains; format: cell-based; conditions: unit assumed
Experimental: as §1

Klebsiella pneumoniae = experiment: MIC, plate method, standard strains; format: cell-based; conditions: unit assumed
Experimental: as §1

Escherichia coli NIHJ = experiment: MIC, plate method, standard strains; format: cell-based; conditions: unit assumed; for MIC Escherichia coli NIHJ: Table 4, standard strain
Experimental: as §1

Chain of β-lactamase, Escherichia freundii GN 346 (Q46041 entry or part of it): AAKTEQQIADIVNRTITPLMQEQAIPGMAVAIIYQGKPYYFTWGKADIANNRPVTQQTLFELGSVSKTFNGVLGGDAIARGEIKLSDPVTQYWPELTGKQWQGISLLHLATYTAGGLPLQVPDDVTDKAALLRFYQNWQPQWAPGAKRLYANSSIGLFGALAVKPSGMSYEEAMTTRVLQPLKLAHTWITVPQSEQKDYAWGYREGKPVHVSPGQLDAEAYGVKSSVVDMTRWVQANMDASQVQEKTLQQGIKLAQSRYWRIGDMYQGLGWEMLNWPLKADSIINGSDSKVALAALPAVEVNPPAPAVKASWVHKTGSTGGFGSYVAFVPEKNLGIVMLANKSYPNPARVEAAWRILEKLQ
T1 sequence (P52664 30-300): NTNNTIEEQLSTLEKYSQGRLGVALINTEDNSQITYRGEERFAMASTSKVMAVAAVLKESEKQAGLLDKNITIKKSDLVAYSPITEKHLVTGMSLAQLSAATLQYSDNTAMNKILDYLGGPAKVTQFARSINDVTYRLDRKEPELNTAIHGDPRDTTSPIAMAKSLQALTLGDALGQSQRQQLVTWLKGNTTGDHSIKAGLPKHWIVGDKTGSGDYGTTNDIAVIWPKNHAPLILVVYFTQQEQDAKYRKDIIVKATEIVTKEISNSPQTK

For `CC1(C)S[C@@H]2[C@H](NC(=O)Cc3ccccc3)C(=O)N2[C@H]1C(=O)O` [Potassium Penicillin G, reference compound], the “Relative activity (%), resistant activity against β-lactamase” value [1] was 100%.
In the case of `CC1(C)S[C@@H]2[C@H](NC(=O)[C@H](N)c3ccccc3)C(=O)N2[C@H]1C(=O)O` [Sodium Ampicillin, reference compound], the MIC Escherichia coli GN 3435 (Escherichia coli) is reported as 3.13 µg/mL, the MIC Escherichia coli GN 3452 (Escherichia coli) is reported as 6.25 µg/mL and the MIC Escherichia coli GN 3481 (Escherichia coli) is reported as 6.25 µg/mL. For the same compound, the MIC Escherichia coli K-1 (Escherichia coli) was 6.25 µg/mL, the MIC Escherichia coli K-2 (Escherichia coli) was 6.25 µg/mL and the MIC Staphylococcus aureus MS 8588 (Staphylococcus aureus) was 6.25 µg/mL. For the same compound, the MIC Staphylococcus aureus MS 8596 (Staphylococcus aureus) was 1.56 µg/mL, the MIC Staphylococcus aureus MS 8684 (Staphylococcus aureus) was 1.56 µg/mL and the MIC Staphylococcus aureus MS 8713 (Staphylococcus aureus) was 3.13 µg/mL. For the same compound, the MIC Proteus morganii (Proteus morganii) was less than 1.57 µg/mL, the MIC Shigella sonnei JS 11232 (Shigella sonnei) was greater than 200 µg/mL and the MIC Shigella sonnei JS 11755 (Shigella sonnei) was 6.25 µg/mL. The MIC Shigella flexneri JS 11839 (Shigella flexneri) was 1.57 µg/mL and the MIC Proteus mirabilis (Proteus mirabilis) was less than 1.57 µg/mL.
For `CC1(C)S[C@@H]2[C@H](NC(=O)C(C(=O)O)c3ccccc3)C(=O)N2[C@H]1C(=O)O` (stereo partly drawn) [Sodium Carbenicillin, reference compound], the MIC Escherichia coli GN 3435 (Escherichia coli) was 6.25 µg/mL, the MIC Escherichia coli GN 3452 (Escherichia coli) was 12.5 µg/mL and the MIC Escherichia coli GN 3481 (Escherichia coli) was 6.25 µg/mL. The MIC Escherichia coli K-1 (Escherichia coli) was 6.25 µg/mL, the MIC Escherichia coli K-2 (Escherichia coli) was 6.25 µg/mL and the MIC Escherichia coli K-4 (Escherichia coli) was 12.5 µg/mL. It also gave an MIC Staphylococcus aureus F-1 (Staphylococcus aureus) of 6.25 µg/mL, an MIC Staphylococcus aureus F-2 (Staphylococcus aureus) of 3.13 µg/mL and an MIC Staphylococcus aureus F-3 (Staphylococcus aureus) of 3.13 µg/mL. It also gave an MIC Staphylococcus aureus F-4 (Staphylococcus aureus) of 12.5 µg/mL, an MIC Staphylococcus aureus MS 8588 (Staphylococcus aureus) of 6.25 µg/mL and an MIC Staphylococcus aureus MS 8596 (Staphylococcus aureus) of 6.25 µg/mL. For the same compound, the MIC Staphylococcus aureus MS 8684 (Staphylococcus aureus) was 6.25 µg/mL, the MIC Staphylococcus aureus MS 8713 (Staphylococcus aureus) was 6.25 µg/mL and the MIC Shigella sonnei JS 11232 (Shigella sonnei) was greater than 200 µg/mL. The MIC Shigella sonnei JS 11755 (Shigella sonnei) was 12.5 µg/mL, the MIC Shigella flexneri JS 11215 (Shigella flexneri) was greater than 200 µg/mL and the MIC Shigella flexneri JS 11839 (Shigella flexneri) was 12.5 µg/mL. For the same compound, the MIC Pseudomonas aeruginosa GN 383 (Pseudomonas aeruginosa) was 50 µg/mL and the “Relative activity (%), resistant activity against β-lactamase” value [1] was 116%.
With `CC1=C(C(=O)O)N2C(=O)[C@@H](NC(=O)[C@H](N)c3ccccc3)[C@H]2SC1` [Sodium Cephalexin, reference compound] the “Relative activity (%) against β-lactamase, E. freundii GN 346” value [2] was 29% and the “Relative activity (%) against β-lactamase, Pr. vulgaris GN 76” value [3] was 150%.
In the case of `CC1(C)S[C@@H]2[C@H](NC(=O)C(c3ccccc3)S(=O)(=O)O)C(=O)N2[C@H]1C(=O)O` (stereo partly drawn) [Sodium Sulbenicillin, reference compound], the MIC Escherichia coli GN 3435 (Escherichia coli) is reported as 6.25 µg/mL, the MIC Escherichia coli GN 3452 (Escherichia coli) is reported as 12.5 µg/mL and the MIC Escherichia coli GN 3481 (Escherichia coli) is reported as 12.5 µg/mL. For the same compound, the MIC Escherichia coli K-1 (Escherichia coli) was 6.25 µg/mL, the MIC Escherichia coli K-2 (Escherichia coli) was 12.5 µg/mL and the MIC Escherichia coli K-4 (Escherichia coli) was 6.25 µg/mL. For the same compound, the MIC Staphylococcus aureus F-1 (Staphylococcus aureus) was 6.25 µg/mL, the MIC Staphylococcus aureus F-3 (Staphylococcus aureus) was 6.25 µg/mL and the MIC Staphylococcus aureus F-4 (Staphylococcus aureus) was 6.25 µg/mL. It also gave an MIC Shigella sonnei JS 11232 (Shigella sonnei) greater than 200 µg/mL, an MIC Shigella sonnei JS 11755 (Shigella sonnei) greater than 200 µg/mL and an MIC Shigella flexneri JS 11215 (Shigella flexneri) greater than 200 µg/mL. For the same compound, the MIC Shigella flexneri JS 11839 (Shigella flexneri) was 12.5 µg/mL and the “Relative activity (%), resistant activity against β-lactamase” value [1] was 50%.
Work on `CC1(C)SC2C(NC(=O)C(NC(=O)N3CC(=O)NC(=O)C3)c3ccccc3)C(=O)N2C1C(=O)O` (stereo not drawn) [compound 59] yielded an MIC Staphylococcus aureus 209p ([4]; Table 3, standard strain, Heart infusion agar pH 7.4) of less than 1.57 µg/mL, an MIC Pseudomonas aeruginosa I.F.C ([5]; Table 3, standard strain) of 25 µg/mL (≈ 51.1 µM) and an MIC Proteus vulgaris 3027 (Proteus vulgaris 3027; Table 3, standard strain) of 3.13 µg/mL (≈ 6.39 µM). It also gave an MIC Klebsiella pneumoniae (Klebsiella pneumoniae; Table 3, standard strain) of 200 µg/mL (≈ 409 µM) and an MIC Esche--richin coil NIHJ (Escherichia coli NIHJ; Table 3, standard strain) of less than 1.57 µg/mL.
In the case of `CC(=O)OCC1=C(C(=O)O)N2C(=O)[C@@H](NC(=O)Cc3cccs3)[C@H]2SC1` [drawing 248, reference compound], the MIC Staphylococcus aureus 209p ([4]; Table 4, standard strain) is reported as less than 1.57 µg/mL, the MIC Pseudomonas aeruginosa I.F.O. [5] is reported as greater than 200 µg/mL and the MIC Proteus vulgaris 3027 (Proteus vulgaris 3027; Table 4, standard strain) is reported as 100 µg/mL (≈ 252 µM). The MIC Klebsiella pneumoniae (Klebsiella pneumoniae; Table 4, standard strain) was less than 1.57 µg/mL and the MIC Escherichia coli NIHJ (Escherichia coli NIHJ) was less than 1.57 µg/mL.
`O=C(Cc1cccs1)N[C@@H]1C(=O)N2C(C(=O)[O-])=C(C[n+]3ccccc3)CS[C@H]12` [drawing 250, reference compound] gave an MIC Staphylococcus aureus 209p ([4]; Table 4, standard strain) of less than 1.57 µg/mL, an MIC Pseudomonas aeruginosa I.F.O. [5] of 200 µg/mL (≈ 481 µM) and an MIC Proteus vulgaris 3027 (Proteus vulgaris 3027; Table 4, standard strain) of 200 µg/mL (≈ 481 µM). For the same compound, the MIC Klebsiella pneumoniae (Klebsiella pneumoniae; Table 4, standard strain) was 3.13 µg/mL (≈ 7.53 µM) and the MIC Escherichia coli NIHJ (Escherichia coli NIHJ) was greater than 3.13 µg/mL.
